Source: PubChem BioAssay AID1745844 (Carcinogenic Potency Database (CPDB), 2022)

Tested on: rodent lifetime carcinogenesis bioassay, tumor incidence TD50; call rule not given here
Assay: carcinogenic potency in animals, long-term in vivo studies, CPDB compilation (AID 1745844)

CNC(=O)c1c(N(C)N=O)ncn1C
active: TD50 (rat, strain BD IX, both sexes, in drinking water, site: nasal cavity, olfactory epithelium, lesion: neuroepithelioma, dosed 73 weeks, study length 79 weeks) 1.03 mg/kg/day | TD50 (rat, strain BD IX, both sexes, in drinking water, site: nasal cavity, lesion: several types, types named in the paper, dosed 73 weeks, study length 79 weeks) 1 mg/kg/day | TD50 (rat, strain BD IX, both sexes, in drinking water, site: nasal cavity, lesion: squamous-cell carcinoma, dosed 73 weeks, study length 79 weeks) 5.56 mg/kg/day

c1ccc(C2CO2)cc1 (stereo not given)
189 mg/kg/day: TD50 (rat, strain Sprague-Dawley, males, by gavage, site: any site (literature study), lesion: malignant tumor, dosed 52 weeks, study length 156 weeks)
10300 mg/kg/day: TD50 (rat, strain Fischer 344, males, by gavage, site: liver, lesion: neoplastic nodule, dosed 104 weeks, study length 107 weeks)
active: TD50 (mouse, strain B6C3F1, females, by gavage, site: forestomach, lesion: several types, types named in the paper, dosed 104 weeks, study length 107 weeks) 172 mg/kg/day | TD50 (mouse, strain B6C3F1, females, by gavage, site: forestomach, lesion: squamous-cell carcinoma, dosed 104 weeks, study length 107 weeks) 505 mg/kg/day | TD50 (mouse, strain B6C3F1, females, by gavage, site: forestomach, lesion: squamous-cell papilloma, dosed 104 weeks, study length 107 weeks) 460 mg/kg/day | TD50 (mouse, strain B6C3F1, males, by gavage, site: forestomach, lesion: several types, types named in the paper, dosed 104 weeks, study length 107 weeks) 90 mg/kg/day | TD50 (mouse, strain B6C3F1, males, by gavage, site: forestomach, lesion: squamous-cell carcinoma, dosed 104 weeks, study length 107 weeks) 475 mg/kg/day | TD50 (mouse, strain B6C3F1, males, by gavage, site: forestomach, lesion: squamous-cell papilloma, dosed 104 weeks, study length 107 weeks) 215 mg/kg/day | TD50 (rat, strain Fischer 344, females, by gavage, site: forestomach, lesion: several types, types named in the paper, dosed 104 weeks, study length 107 weeks) 42.9 mg/kg/day | TD50 (rat, strain Fischer 344, females, by gavage, site: forestomach, lesion: squamous-cell carcinoma, dosed 104 weeks, study length 107 weeks) 114 mg/kg/day | TD50 (rat, strain Fischer 344, females, by gavage, site: forestomach, lesion: squamous-cell papilloma, dosed 104 weeks, study length 107 weeks) 217 mg/kg/day | TD50 (rat, strain Fischer 344, males, by gavage, site: forestomach, lesion: several types, types named in the paper, dosed 104 weeks, study length 107 weeks) 30.7 mg/kg/day | TD50 (rat, strain Fischer 344, males, by gavage, site: forestomach, lesion: squamous-cell carcinoma, dosed 104 weeks, study length 107 weeks) 81.6 mg/kg/day | TD50 (rat, strain Fischer 344, males, by gavage, site: forestomach, lesion: squamous-cell papilloma, dosed 104 weeks, study length 107 weeks) 146 mg/kg/day | TD50 (rat, strain Sprague-Dawley, females, by gavage, site: forestomach, lesion: benign tumor, dosed 52 weeks, study length 156 weeks) 503 mg/kg/day | TD50 (rat, strain Sprague-Dawley, females, by gavage, site: forestomach, lesion: several types, types named in the paper, dosed 52 weeks, study length 156 weeks) 96.5 mg/kg/day | TD50 (rat, strain Sprague-Dawley, females, by gavage, site: forestomach, lesion: squamous-cell carcinoma, in situ, dosed 52 weeks, study length 156 weeks) 129 mg/kg/day | TD50 (rat, strain Sprague-Dawley, females, by gavage, site: forestomach, lesion: squamous-cell carcinoma, invasive, dosed 52 weeks, study length 156 weeks) 301 mg/kg/day | TD50 (rat, strain Sprague-Dawley, females, by gavage, site: forestomach, lesion: squamous-cell carcinoma, dosed 52 weeks, study length 156 weeks) 102 mg/kg/day | TD50 (rat, strain Sprague-Dawley, males, by gavage, site: forestomach, lesion: benign tumor, dosed 52 weeks, study length 156 weeks) 354 mg/kg/day | TD50 (rat, strain Sprague-Dawley, males, by gavage, site: forestomach, lesion: several types, types named in the paper, dosed 52 weeks, study length 156 weeks) 99.6 mg/kg/day | TD50 (rat, strain Sprague-Dawley, males, by gavage, site: forestomach, lesion: squamous-cell carcinoma, in situ, dosed 52 weeks, study length 156 weeks) 140 mg/kg/day | TD50 (rat, strain Sprague-Dawley, males, by gavage, site: forestomach, lesion: squamous-cell carcinoma, invasive, dosed 52 weeks, study length 156 weeks) 267 mg/kg/day | TD50 (rat, strain Sprague-Dawley, males, by gavage, site: forestomach, lesion: squamous-cell carcinoma, dosed 52 weeks, study length 156 weeks) 63 mg/kg/day
5960 mg/kg/day: TD50 (mouse, strain B6C3F1, females, by gavage, site: liver, lesion: several types, types named in the paper, dosed 104 weeks, study length 107 weeks)
191 mg/kg/day: TD50 (rat, strain Sprague-Dawley, males, by gavage, site: any site (literature study), lesion: several types, types named in the paper, dosed 52 weeks, study length 156 weeks)
223 mg/kg/day: TD50 (mouse, strain B6C3F1, males, by gavage, site: liver, lesion: several types, types named in the paper, dosed 104 weeks, study length 107 weeks)
164 mg/kg/day: TD50 (rat, strain Sprague-Dawley, females, by gavage, site: any site (literature study), lesion: several types, types named in the paper, dosed 52 weeks, study length 156 weeks)
166 mg/kg/day: TD50 (rat, strain Sprague-Dawley, females, by gavage, site: any site (literature study), lesion: malignant tumor, dosed 52 weeks, study length 156 weeks)

CC(=O)OC1CC(C)CCC1C(C)C (stereo not given) (tested in a mixture with another compound)
112 mg/kg/day: TD50 (mouse, strain CFLP, males, by gavage, site: any site (literature study), lesion: malignant tumor, dosed 80 weeks, study length 104 weeks)

CCCCCCCCCCCCCCN(C)N=O
active: carcinogen call (rat, strain Fischer 344, males, by gavage, site: any site (literature study), lesion: several types, types named in the paper, dosed 30 weeks, study length 102 weeks) positive | TD50 (rat, strain Fischer 344, males, by gavage, site: lung, lesion: adenocarcinoma, dosed 30 weeks, study length 102 weeks) 60.5 mg/kg/day | TD50 (rat, strain Fischer 344, males, by gavage, site: lung, lesion: adenoma, dosed 30 weeks, study length 102 weeks) 29.4 mg/kg/day | carcinogen call (rat, strain Fischer 344, males, by gavage, site: urinary bladder, lesion: transitional-cell carcinoma, dosed 30 weeks, study length 102 weeks) positive

CCN(C#N)N=O
active: TD50 (rat, strain MRC-Wistar, females, in drinking water, site: respiratory system, lesion: one or several types, types not named, dosed 52 weeks, study length 90 weeks) 2.91 mg/kg/day | TD50 (rat, strain MRC-Wistar, males, in drinking water, site: respiratory system, lesion: one or several types, types not named, dosed 52 weeks, study length 90 weeks) 4.99 mg/kg/day
3.17 mg/kg/day: TD50 (rat, strain MRC-Wistar, females, in drinking water, site: any site (literature study), lesion: several types, types named in the paper, dosed 52 weeks, study length 90 weeks)
